Laboratory results taken from US20230399314A1, “CD73 INHIBITOR AND USE THEREOF” (WUHAN HUMANWELL INNOVATIVE DRUG RESEARCH AND DEVELOPMENT …, priority 2020, published 2023).
One block for each compound: values may come before it.

Assays:
[1] = target: CD73 bound to the surfaces of A375 cells (Homo sapiens (Human), UniProt P21589); assay: Inhibitory activity to CD73 enzyme bound to the surfaces of human melanoma A375 cells; format: cell-based; settings: AMP 200 μM, 16 h
Experimental: The compound was diluted with serum-free DMEM to form a stock solution (5×) of an appropriate concentration gradient, the compound solution was added to the cells in the above 96-well plate according to 20 μL/well, and the mixture was placed in an incubator and pre-incubated for 30 min.
(§1) A375-bound CD73 inhibition rates of the compound at different concentrations were calculated according to the following formula, the concentration of the compound was taken as the X-axis, the inhibition rate was taken as the Y-axis, and an IC50 value of the compound in inhibiting A375-bound CD73 was calculated by using Prism software.

Human CD4+ T cells = assay: Relieving AMP-induced proliferation inhibition of human CD4+ T cells (CCK8); format: cell-based; settings: AMP 0.3 mM, day 5
Experimental: On day 1 of the experiment, CD4^+ T cells (Allcells Shanghai, PB009-2F-C) were thawed, and inoculated into two replicate wells according to 3×10^4 cells/well and 50 μL/well. The compound was diluted with a complete medium to form a stock solution (4×) of an appropriate concentration gradient, the compound solution was added to the above cells according to 50 μL/well, and the mixture was pre-incubated at 37° C. for 30 min. […] Meanwhile, a positive reference group (Human CD4^+ T+IL-2+CD3/CD28 beads) and a negative reference group (Human CD4^+ T+IL-2+CD3/CD28 beads+AMP) were set. AMP (Sigma; A1752-5G) was diluted with a complete medium to form an AMP solution (4×), the AMP solution was added to the above cells according to 50 μL/well, the final concentration was 0.3 mM, and the mixture was incubated at 37° C. On day 3 of the experiment, the AMP solution was added to the above plate according to 20 μL/well, and the final concentration was 0.3 mM. On day 5, the proliferation of the cells was detected by using a CCK8 kit (DojinDO; CK04).
Inhibition rates of the compound at different concentrations in relieving AMP-induced proliferation inhibition of CD4^+ T cells were calculated according to the following formula, the concentration of the compound was taken as the X-axis, the inhibition rate was taken as the Y-axis, and an EC50 value of the compound in relieving the AMP-induced proliferation inhibition of CD4^+ T cells was calculated by using Prism software.

[2] = Pharmacokinetic test on mice; format: in vivo, male ICR mice; settings: for Vd: read-out: Vz; for pharmacokinetic properties compared to the reference compounds: mice
Experimental: (§2) In a pharmacokinetic test on mice, male ICR mice of 20 g to 25 g were used and fasted overnight. 3 mice were selected for orally intragastric administration (10 mg/kg). Before administration, and 15 min, 30 min, 1 h, 2 h, 4 h, 8 h, and 24 h after administration, blood was sampled from each mouse. Another 3 mice were selected for intravenous injection administration (3 mg/kg), and before administration, and 15 min, 30 min, 1 h, 2 h, 4 h, 8 h, and 24 h after administration, blood was sampled from each mouse. The blood sample was centrifuged at 6,800 g and 2 to 8° C. for 6 min, and plasma was collected and stored at −80° C. The plasma of each time point was vortex-mixed for 1 min with an acetonitrile solution containing the internal standard with a volume 3-5 times that of the plasma of each time point, and centrifuged at 13,000 rpm and 4° C. for 10 min, a supernatant was collected and mixed with water with a volume 3 times that of the supernatant, and an appropriate amount of the mixed solution was used for LC-MS/MS analysis. The main pharmacokinetic parameters were analyzed by using a WinNonlin 7.0 non-compartmental model.

Human-CD73 enzyme = Human-CD73 enzyme (Homo sapiens (Human), UniProt P21589); assay: In vitro inhibitory activity to recombinant human CD73 enzyme (ATP-GLO); format: biochemical; settings: Human-CD73 0.1 μg/mL, AMP 100 μM
Experimental: Human-CD73 (Novoprotein; C446) was diluted with Tris-MgCl2 buffer to form a stock solution (3×), which was placed in a 96-well plate according to 20 μL/well to obtain a final concentration of 0.1 μg/mL. The compound was diluted with Tris-MgCl2 buffer to form a stock solution (3×) of an appropriate concentration gradient, the compound solution was added to the above 96-well plate according to 20 μL/well and uniformly mixed with the Human-CD73 solution, and the mixture was incubated at the room temperature for 30 min. Meanwhile, a positive reference group (without the compound) and a negative reference group (without CD73) were set. AMP (Sigma; A1752-5G) was diluted with Tris-MgCl2 buffer to form a stock solution (3×), which was added to the above 96-well plate according to 20 μL/well to obtain a final concentration of 100 μM, and the mixture was uniformly mixed and incubated at 37° C. for 60 min; ATP (Sigma; A7699-1G) was diluted with Tris-MgCl2 buffer to form a stock solution (7×), which was added to the above 96-well plate according to 10 μL/well to obtain a final concentration of 100 μM, and the mixture was uniformly mixed, incubated for 5 min, and tested by using an ATP-GLO kit (Promega; G7573).
as §1, with “Human-CD73” for “A375-bound CD73”

[3] = Pharmacokinetic test on dogs; format: in vivo, male Beagle dogs
Experimental: as §2
In a pharmacokinetic test on dogs, male Beagle dogs of 8 to 10 kg were used and fasted overnight. 3 Beagle dogs were selected for orally intragastric administration (5 mg/kg). Another 3 Beagle dogs were selected for intravenous injection administration (1 mg/kg). Other operations were the same as the pharmacokinetic test on mice.

[4] = male, ICR, plasma, po, mouse, orally intragastric 10 mg/kg
[5] = male, ICR, plasma, po, mouse, orally intragastric 10 mg/kg, read-out: AUC0-t
[6] = male, ICR, plasma, po, mouse, orally intragastric 10 mg/kg, read-out: Cmax
[7] = male, ICR, plasma, po, mouse, orally intragastric 10 mg/kg, read-out: Tmax
[8] = male, ICR, plasma, mouse, intravenous injection 3 mg/kg
[9] = male, ICR, plasma, mouse, intravenous injection 3 mg/kg, read-out: AUC0-t
[10] = mouse, orally intragastric 10 mg/kg
[11] = male, Beagle, plasma, po, dog, orally intragastric 5 mg/kg
[12] = male, Beagle, plasma, dog, intravenous injection 1 mg/kg

Chain of CD73 bound to the surfaces of A375 cells (P21589 27-574): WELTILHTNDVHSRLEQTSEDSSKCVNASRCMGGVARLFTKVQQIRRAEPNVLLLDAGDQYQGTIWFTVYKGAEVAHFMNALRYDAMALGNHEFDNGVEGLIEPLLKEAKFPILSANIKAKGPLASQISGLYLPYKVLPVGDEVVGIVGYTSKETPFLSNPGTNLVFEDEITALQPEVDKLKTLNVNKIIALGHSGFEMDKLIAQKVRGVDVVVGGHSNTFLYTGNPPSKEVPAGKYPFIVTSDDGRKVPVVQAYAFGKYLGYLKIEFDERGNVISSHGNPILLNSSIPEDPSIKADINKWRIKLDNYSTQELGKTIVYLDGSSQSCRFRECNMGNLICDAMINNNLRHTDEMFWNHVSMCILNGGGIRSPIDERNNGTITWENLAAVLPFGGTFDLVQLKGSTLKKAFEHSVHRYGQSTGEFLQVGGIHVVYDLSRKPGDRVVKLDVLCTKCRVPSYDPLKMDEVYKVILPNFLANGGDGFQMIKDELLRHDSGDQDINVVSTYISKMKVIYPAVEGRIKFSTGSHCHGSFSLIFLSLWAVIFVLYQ
Chain of Human-CD73 enzyme (P21589 27-574): as above

IC50 (Human-CD73 enzyme): 15.4 nM
SMILES: COC[C@H]1C[C@@H]1c1cc(-c2c[nH]c(=O)[nH]c2=O)nnc1Cl [Compound 12, 5-(6-chloro-5-((1S,2S)-2-(methoxymethyl)cyclopropyl)pyridazin-3-yl)pyrimidine-2,4(1H,3H)-dione]

IC50 (Human-CD73 enzyme): 6870 nM
SMILES: O=c1[nH]cc(-c2cc([C@@H]3C[C@H]3CC(F)(F)F)c(Cl)nn2)c(=O)[nH]1 [Compound 13, 5-(6-chloro-5-((1R,2S)-2-(2,2,2-trifluoroethyl)cyclopropyl)pyridazin-3-yl)pyrimidine-2,4(1H,3H)-dione]

IC50 (Human-CD73 enzyme): 123 nM
SMILES: N#Cc1nnc(-c2c[nH]c(=O)[nH]c2=O)cc1[C@H]1C[C@@H]1C(F)(F)F [Compound 15, 6-(2,4-dioxo-1H-pyrimidin-5-yl)-4-((1S,2S)-2-(trifluoromethyl)cyclopropyl)pyridazine-3-carbonitrile]

IC50 (Human-CD73 enzyme): 173 nM
SMILES: CCOC[C@H]1C[C@@H]1c1cc(-c2c[nH]c(=O)[nH]c2=O)nnc1Cl [Compound 16, 5-(6-chloro-5-((1S,2S)-2-(ethoxymethyl)cyclopropyl)pyridazin-3-yl)-1H-pyrimidine-2,4-dione]

IC50 (Human-CD73 enzyme): 164 nM
SMILES: CC(C)OC[C@H]1C[C@@H]1c1cc(-c2c[nH]c(=O)[nH]c2=O)nnc1Cl [Compound 17, 5-(6-chloro-5-((1S,2S)-2-(isopropoxymethyl)cyclopropyl)pyridazin-3-yl)-1H-pyrimidine-2,4-dione]

IC50 [1]: 17.6 nM
half-life [2, 4]: 1.43 h
AUC(0-t) [2, 5]: 9800 ng·h/mL
Cmax [2, 6]: 4410 ng/mL
Tmax [2, 7]: 0.42 h
clearance [2, 8]: 10.3 mL/min/kg
half-life [2, 8]: 1.82 h
AUC(0-t) [2, 9]: 5070 ng·h/mL
Vd [2, 8]: 1.5 L/kg
SMILES: O=c1[nH]cc(-c2cc([C@H]3C[C@@H]3CC(F)F)c(Cl)nn2)c(=O)[nH]1 [Compound 18, 5-(6-chloro-5-((1S,2R)-2-(2,2-difluoroethyl)cyclopropyl)pyridazin-3-yl)pyrimidine-2,4(1H,3H)-dione]

IC50 (Human-CD73 enzyme): 1250 nM
SMILES: O=c1[nH]cc(-c2cc([C@@H]3C[C@H]3CC(F)F)c(Cl)nn2)c(=O)[nH]1 [Compound 19, 5-(6-chloro-5-((1R,2S)-2-(2,2-difluoroethyl)cyclopropyl)pyridazin-3-yl)pyrimidine-2,4(1H,3H)-dione]

IC50 (Human-CD73 enzyme): 9.55 nM
SMILES: Cc1nnc(-c2c[nH]c(=O)[nH]c2=O)cc1[C@H]1C[C@@H]1CF [Compound 20, 5-(5-((1S,2S)-2-(fluoromethyl)cyclopropyl)-6-methylpyridazin-3-yl)pyrimidine-2,4(1H,3H)-dione]

IC50 [1]: 247 nM
half-life [2, 4]: 1.17 h
AUC(0-t) [2, 5]: 821 ng·h/mL
Cmax [2, 6]: 1150 ng/mL
Tmax [2, 7]: 0.25 h
clearance [2, 8]: 85.2 mL/min/kg
half-life [2, 8]: 1.99 h
AUC(0-t) [2, 9]: 585 ng·h/mL
Vd [2, 8]: 14.7 L/kg
IC50 (Human-CD73 enzyme): 12.5 nM
SMILES: Cc1nnc(-c2c[nH]c(=O)[nH]c2=O)cc1[C@H]1C[C@@H]1C(F)F [Reference compound 1, 5-(5-((1S,2S)-2-(difluoromethyl)cyclopropyl)-6-methylpyridazin-3-yl)pyrimidine-2,4(1H,3H)-dione, reference compound]

The remaining lines, values behind:

SMILES: O=c1[nH]cc(-c2cc([C@H]3C[C@@H]3C(F)(F)F)c(Cl)nn2)c(=O)[nH]1 [Compound 3, 5-(6-chloro-5-((1S,2S)-2-(trifluoromethyl)cyclopropyl)pyridazin-3-yl)pyrimidine-2,4(1H,3H)-dione]
IC50 [1]: 26.8 nM
EC50 (Human CD4+ T cells; Homo sapiens, 120 h): 111 nM
half-life [2, 4]: 2.7 h
AUC(0-t) [2, 5]: 107000 ng·h/mL
Cmax [2, 6]: 12100 ng/mL
Tmax [2, 7]: 0.83 h
clearance [2, 8]: 3.67 mL/min/kg
half-life [2, 8]: 3.72 h
AUC(0-t) [2, 9]: 13800 ng·h/mL
Vd [2, 8]: 1.17 L/kg
pharmacokinetic properties compared to the reference compounds [2]: significantly improved

SMILES: CC(C)(O)[C@H]1C[C@@H]1c1cc(-c2c[nH]c(=O)[nH]c2=O)nnc1Cl [Compound 5, 5-(6-chloro-5-((1S,2S)-2-(2-hydroxypropan-2-yl)cyclopropyl)pyridazin-3-yl)pyrimidine-2,4(1H,3H)-dione]
IC50 (Human-CD73 enzyme): 11.6 nM

SMILES: CC(O)[C@H]1C[C@@H]1c1cc(-c2c[nH]c(=O)[nH]c2=O)nnc1Cl (stereo partly drawn) [Compound 6, 5-(6-chloro-5-((1S,2S)-2-(1-hydroxyethyl)cyclopropyl)pyridazin-3-yl)pyrimidine-2,4(1H,3H)-dione]
IC50 (Human-CD73 enzyme): 24.5 nM

SMILES: Cc1nnc(-c2c[nH]c(=O)[nH]c2=O)cc1[C@H]1C[C@@H]1C(F)(F)F [Compound 7, 5-(6-methyl-5-((1S,2S)-2-(trifluoromethyl)cyclopropyl)pyridazin-3-yl)pyrimidine-2,4(1H,3H)-dione]
IC50 [1]: 54.9 nM
IC50 (Human-CD73 enzyme): 32.1 nM

SMILES: O=c1[nH]cc(-c2cc([C@@H]3C[C@H]3CF)c(Cl)nn2)c(=O)[nH]1 [Compound 8, 5-(6-chloro-5-((1R,2R)-2-(fluoromethyl)cyclopropyl)pyridazin-3-yl)pyrimidine-2,4(1H,3H)-dione]
IC50 (Human-CD73 enzyme): 16.5 nM

SMILES: O=c1[nH]cc(-c2cc([C@H]3C[C@@H]3CC(F)(F)F)c(Cl)nn2)c(=O)[nH]1 [Compound 9, 5-(6-chloro-5-((1S,2R)-2-(2,2,2-trifluoroethyl)cyclopropyl)pyridazin-3-yl)pyrimidine-2,4(1H,3H)-dione]
IC50 [1]: 5.56 nM
EC50 (Human CD4+ T cells): 32.6 nM
pharmacokinetic properties compared to the reference compounds [2]: significantly improved
AUC(0-t) [2, 10]: 65441 ng·h/mL
Cmax [2, 10]: 6601.90 ng/mL
T1/2 [2, 10]: 4.87 h
Tmax [2, 10]: 1.17 h
IC50 (Human-CD73 enzyme): 8.17 nM

SMILES: O=c1[nH]cc(-c2cc([C@H]3C[C@@H]3COC(F)(F)F)c(Cl)nn2)c(=O)[nH]1 [Compound 11, 5-(6-chloro-5-((1S,2S)-2-((trifluoromethoxy)methyl)cyclopropyl)pyridazin-3-yl)pyrimidine-2,4(1H,3H)-dione]
EC50 (Human CD4+ T cells; Homo sapiens, 120 h): 169 nM
exposure compared to the reference compounds ([3]; dogs): much higher
AUC(0-t) [3, 11]: 16600 ng·h/mL
Cmax [3, 11]: 5710 ng/mL
Tmax [3, 11]: 0.83 h
half-life [3, 11]: 2.27 h
AUC(0-t) [3, 12]: 2100 ng·h/mL
clearance [3, 12]: 8.83 mL/min/kg
half-life [3, 12]: 0.89 h
Vd ([3]; male, Beagle, plasma, dog, intravenous injection 1 mg/kg, read-out: Vz): 0.66 L/kg
half-life [2, 4]: 3.06 h
AUC(0-t) [2, 5]: 36200 ng·h/mL
Cmax [2, 6]: 5530 ng/mL
Tmax [2, 7]: 0.67 h
clearance [2, 8]: 7.83 mL/min/kg
half-life [2, 8]: 3.72 h
AUC(0-t) [2, 9]: 6950 ng·h/mL
Vd [2, 8]: 2.57 L/kg
pharmacokinetic properties compared to the reference compounds [2]: significantly improved
